Reference: patent US11447466B2, “Substituted indole compounds useful as inhibitors of TLR7/8/9” (BRISTOL-MYERS SQUIBB COMPANY, priority 2017, dated 2022)
pIC50: −log10 of the molar value.

Assays:
Format in all cases: cell-based
[1] = molecular target: T1, human TLR7 (Homo sapiens, UniProt Q9NYK1); assay: TLR7 inhibition reporter assay (HEK-Blue SEAP reporter, gardiquimod stimulation); details: HEK-Blue cells overexpressing human TLR7, SEAP reporter, gardiquimod 7.5 μM, 22 hour incubation
T1 construct: host or cells: HEK-Blue cells
T1 sequence (Q9NYK1 27-1049): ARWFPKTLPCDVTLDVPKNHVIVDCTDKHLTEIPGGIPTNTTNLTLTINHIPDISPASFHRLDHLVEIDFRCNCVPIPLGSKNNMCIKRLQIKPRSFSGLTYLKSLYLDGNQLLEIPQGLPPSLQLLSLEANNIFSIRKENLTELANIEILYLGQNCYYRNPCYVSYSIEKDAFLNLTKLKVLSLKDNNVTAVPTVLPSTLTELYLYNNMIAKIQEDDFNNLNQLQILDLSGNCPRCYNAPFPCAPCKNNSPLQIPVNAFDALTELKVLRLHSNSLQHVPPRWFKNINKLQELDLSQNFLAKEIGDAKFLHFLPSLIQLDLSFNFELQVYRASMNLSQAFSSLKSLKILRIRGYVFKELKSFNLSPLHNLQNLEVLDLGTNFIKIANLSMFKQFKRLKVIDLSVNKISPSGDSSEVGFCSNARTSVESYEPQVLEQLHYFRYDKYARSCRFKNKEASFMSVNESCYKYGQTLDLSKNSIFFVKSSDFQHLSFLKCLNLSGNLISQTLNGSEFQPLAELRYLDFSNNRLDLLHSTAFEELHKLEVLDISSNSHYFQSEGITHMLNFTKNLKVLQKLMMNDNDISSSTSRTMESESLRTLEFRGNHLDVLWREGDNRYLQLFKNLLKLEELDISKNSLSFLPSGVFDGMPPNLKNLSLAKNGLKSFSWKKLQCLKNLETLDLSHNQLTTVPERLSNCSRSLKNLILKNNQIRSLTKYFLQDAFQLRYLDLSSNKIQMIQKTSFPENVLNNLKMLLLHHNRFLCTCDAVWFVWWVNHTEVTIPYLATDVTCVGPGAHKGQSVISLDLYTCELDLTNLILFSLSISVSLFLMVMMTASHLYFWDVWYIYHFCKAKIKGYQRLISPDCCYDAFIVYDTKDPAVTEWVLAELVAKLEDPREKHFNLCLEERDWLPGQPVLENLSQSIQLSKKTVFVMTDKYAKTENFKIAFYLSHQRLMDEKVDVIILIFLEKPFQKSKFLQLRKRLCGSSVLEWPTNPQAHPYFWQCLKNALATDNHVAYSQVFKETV
How it was run: (§1)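 Screening used HEK-Blue cells overexpressing one human TLR (7, 8 or 9) and an IFN-β minimal promoter–NF-κB/AP-1 SEAP construct. Stimulation lasted 22 h at 37 °C with receptor-specific agonist: gardiquimod, R848 or ODN2006 at 7.5 μM, 15.9 μM and 5 nM.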

[2] = molecular target: T2, human TLR8 (Homo sapiens, UniProt Q9NR97); assay: TLR8 inhibition reporter assay (HEK-Blue SEAP reporter, R848 stimulation); details: HEK-Blue cells overexpressing human TLR8, SEAP reporter, R848 15.9 μM, 22 hour incubation
T2 construct: host or cells: HEK-Blue cells
T2 sequence (Q9NR97 27-1041): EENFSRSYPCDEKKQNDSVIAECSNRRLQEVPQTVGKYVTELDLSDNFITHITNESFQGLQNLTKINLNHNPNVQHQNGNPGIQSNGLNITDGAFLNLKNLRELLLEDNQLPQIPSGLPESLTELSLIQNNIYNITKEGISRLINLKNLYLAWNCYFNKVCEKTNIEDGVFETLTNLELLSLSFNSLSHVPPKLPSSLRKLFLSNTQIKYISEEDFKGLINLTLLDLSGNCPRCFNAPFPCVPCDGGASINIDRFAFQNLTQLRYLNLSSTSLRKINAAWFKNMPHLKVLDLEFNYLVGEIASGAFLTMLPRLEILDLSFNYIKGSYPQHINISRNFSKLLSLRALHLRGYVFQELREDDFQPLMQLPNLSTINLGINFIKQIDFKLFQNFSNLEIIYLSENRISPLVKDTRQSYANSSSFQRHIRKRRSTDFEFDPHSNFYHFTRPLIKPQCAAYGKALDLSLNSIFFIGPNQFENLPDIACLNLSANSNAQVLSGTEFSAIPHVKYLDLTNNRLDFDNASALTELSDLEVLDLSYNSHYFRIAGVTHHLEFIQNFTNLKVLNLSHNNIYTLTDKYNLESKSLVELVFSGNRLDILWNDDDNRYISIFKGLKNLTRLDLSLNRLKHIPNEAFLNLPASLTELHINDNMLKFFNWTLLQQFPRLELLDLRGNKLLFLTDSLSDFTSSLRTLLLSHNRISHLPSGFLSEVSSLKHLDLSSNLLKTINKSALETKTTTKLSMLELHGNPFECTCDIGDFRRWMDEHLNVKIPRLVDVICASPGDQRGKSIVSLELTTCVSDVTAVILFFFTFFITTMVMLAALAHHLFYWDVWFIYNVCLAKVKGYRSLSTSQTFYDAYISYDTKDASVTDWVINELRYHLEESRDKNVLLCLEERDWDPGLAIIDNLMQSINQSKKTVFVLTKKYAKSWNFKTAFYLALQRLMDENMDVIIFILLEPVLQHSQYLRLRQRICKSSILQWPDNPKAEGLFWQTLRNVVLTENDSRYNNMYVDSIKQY
How it was run: as §1

[3] = molecular target: T3, human TLR9 (Homo sapiens, UniProt Q9NR96); assay: TLR9 inhibition reporter assay (HEK-Blue SEAP reporter, ODN2006 stimulation); details: HEK-Blue cells overexpressing human TLR9, SEAP reporter, ODN2006 5 nM, 22 hour incubation
T3 construct: host or cells: HEK-Blue cells
T3 sequence (Q9NR96 26-1032): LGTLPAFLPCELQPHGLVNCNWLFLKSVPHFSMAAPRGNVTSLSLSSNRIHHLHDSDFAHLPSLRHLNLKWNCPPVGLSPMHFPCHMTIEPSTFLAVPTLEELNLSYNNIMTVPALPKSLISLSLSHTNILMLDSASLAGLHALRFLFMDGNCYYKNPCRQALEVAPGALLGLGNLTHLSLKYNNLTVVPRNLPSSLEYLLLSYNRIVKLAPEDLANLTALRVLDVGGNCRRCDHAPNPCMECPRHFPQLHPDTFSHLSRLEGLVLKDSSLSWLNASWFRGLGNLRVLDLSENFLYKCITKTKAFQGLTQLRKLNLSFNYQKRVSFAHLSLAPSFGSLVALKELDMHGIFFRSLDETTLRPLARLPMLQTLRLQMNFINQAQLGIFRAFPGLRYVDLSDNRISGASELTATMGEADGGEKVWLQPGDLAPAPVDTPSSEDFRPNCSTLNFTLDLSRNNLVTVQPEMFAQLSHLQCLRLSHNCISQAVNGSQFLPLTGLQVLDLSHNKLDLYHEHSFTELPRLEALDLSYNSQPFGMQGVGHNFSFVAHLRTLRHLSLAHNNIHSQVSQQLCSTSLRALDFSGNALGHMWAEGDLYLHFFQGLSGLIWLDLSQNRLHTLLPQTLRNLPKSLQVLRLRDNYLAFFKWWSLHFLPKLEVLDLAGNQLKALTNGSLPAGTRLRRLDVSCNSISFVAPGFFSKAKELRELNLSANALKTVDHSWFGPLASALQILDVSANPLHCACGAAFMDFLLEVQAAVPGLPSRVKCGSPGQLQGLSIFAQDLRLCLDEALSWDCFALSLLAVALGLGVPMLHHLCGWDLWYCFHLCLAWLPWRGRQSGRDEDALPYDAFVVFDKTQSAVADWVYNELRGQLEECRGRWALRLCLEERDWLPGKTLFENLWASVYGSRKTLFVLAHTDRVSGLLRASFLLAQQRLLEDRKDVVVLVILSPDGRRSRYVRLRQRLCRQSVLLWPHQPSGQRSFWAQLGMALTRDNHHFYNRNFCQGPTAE
How it was run: as §1

SMILES	pIC50 [1]	pIC50 [2]	pIC50 [3]
CC(=O)NC1CCC(N2CCC(c3ccc4[nH]c(-c5cc(C)c(=O)n(C)c5)c(C(C)C)c4c3)CC2)CC1 (stereo not drawn) [Example 229, N-(4-(4-(2-(1,5-dimethyl-6-oxo-1,6-dihydropyridin-3-yl)-3-isopropyl-1H-indol-5-yl)piperidin-1-yl)cyclohexyl)acetamide]	8.24	8.38	≤ 4.30
Cc1cc(-c2[nH]c3ccc(C4CCN(C5CCCOC5)CC4)cc3c2C(C)C)nn(C)c1=O (stereo not drawn) [Example 188, 6-(3-isopropyl-5-(1-(tetrahydro-2H-pyran-3-yl)piperidin-4-yl)-1H-indol-2-yl)-2,4-dimethylpyridazin-3(2H)-one]	7.85	7.95	6.28
CC(C)c1c(-c2ccc(=O)n(C)n2)[nH]c2ccc(C3CCNCC3)cc12 [Example 5, 6-(3-isopropyl-5-(piperidin-4-yl)-1H-indol-2-yl)-2-methylpyridazin-3(2H)-one]	6.75	6.97	6.12
CCn1cc(-c2[nH]c3ccc(C4CCN(C(=O)CN(C)C)CC4)cc3c2C(C)C)c(C)c(C)c1=O [Example 281, 5-(5-(1-(dimethylglycyl)piperidin-4-yl)-3-isopropyl-1H-indol-2-yl)-1-ethyl-3,4-dimethylpyridin-2(1H)-one]	7.32	7.53	5.24
Cc1c(-c2[nH]c3ccc(C4CCN(C5COC5)CC4)cc3c2C(C)C)cn(C)c(=O)c1C [Example 207, 5-(3-isopropyl-5-(1-(oxetan-3-yl)piperidin-4-yl)-1H-indol-2-yl)-1,3,4-trimethylpyridin-2(1H)-one]	7.68	7.93	4.33
CCCNC(=O)c1cc(-c2[nH]c3ccc(C4CCNCC4)cc3c2C(C)C)cn(C)c1=O [Example 64, 5-(3-isopropyl-5-(piperidin-4-yl)-1H-indol-2-yl)-1-methyl-2-oxo-N-propyl-1,2-dihydropyridine-3-carboxamide]	6.32	5.97	5.13

Further lines, results first:

pIC50 [1]	pIC50 [2]	pIC50 [3]	SMILES
8.16	7.67	5.05	Cc1cc(-c2[nH]c3ccc(C4CCN(C)CC4)cc3c2C(C)C)nn(C)c1=O [Example 191, 6-(3-isopropyl-5-(1-methylpiperidin-4-yl)-1H-indol-2-yl)-2,4-dimethylpyridazin-3(2H)-one]
8.54	8.96	5.22	Cc1nn(C)cc1CN1CCC(c2ccc3[nH]c(-c4cc(C)c(=O)n(C)c4)c(C(C)C)c3c2)CC1 [Example 232, 5-(5-(1-((1,3-dimethyl-1H-pyrazol-4-yl)methyl)piperidin-4-yl)-3-isopropyl-1H-indol-2-yl)-1,3-dimethylpyridin-2(1H)-one]
7.89	7.80	5.48	CC(C)c1c(-c2cc(-c3ccc(F)nc3)c(=O)n(C)c2)[nH]c2ccc(C3CCN(C(C)C)CC3)cc12 [Example 342, 6′-fluoro-5-(3-isopropyl-5-(1-isopropylpiperidin-4-yl)-1H-indol-2-yl)-1-methyl-[3,3′-bipyridin]-2(1H)-one]
8.64	8.89	5.26	Cc1cc(-c2[nH]c3ccc(C4CCN(CC(C)(C)O)CC4)cc3c2C(C)C)cn(C)c1=O [Example 310, 5-(5-(1-(2-hydroxy-2-methylpropyl)piperidin-4-yl)-3-isopropyl-1H-indol-2-yl)-1,3-dimethylpyridin-2(1H)-one]
7.84	8.85	5.67	COCCN1CCC(c2ccc3[nH]c(-c4cc(-c5cnn(C)c5)c(=O)n(C)c4)c(C(C)C)c3c2)CC1 [Example 350, 5-(3-isopropyl-5-(1-(2-methoxyethyl)piperidin-4-yl)-1H-indol-2-yl)-1-methyl-3-(1-methyl-1H-pyrazol-4-yl)pyridin-2(1H)-one]
6.89	6.85	4.31	Cc1cc(-c2[nH]c3ccc(C4CCN(Cc5cc(Cl)ccc5F)CC4)cc3c2C(C)C)cn(C)c1=O [Example 80, 5-(5-(1-(5-chloro-2-fluorobenzyl)piperidin-4-yl)-3-isopropyl-1H-indol-2-yl)-1,3-dimethylpyridin-2(1H)-one]
7.21	7.81	4.31	Cc1cc(-c2[nH]c3ccc(C4CCN(CC(=O)N(C)C)CC4)cc3c2C(C)C)cn(CCO)c1=O [Example 167, 2-(4-(2-(1-(2-hydroxyethyl)-5-methyl-6-oxo-1,6-dihydropyridin-3-yl)-3-isopropyl-1H-indol-5-yl)piperidin-1-yl)-N,N-dimethylacetamide]
8.96	7.87	6.11	CCCN1CCC(c2ccc3[nH]c(-c4cc(-c5cnc(C6CC6)nc5)c(=O)n(C)c4)c(C(C)C)c3c2)CC1 [Example 338, 3-(2-cyclopropylpyrimidin-5-yl)-5-(3-isopropyl-5-(1-propylpiperidin-4-yl)-1H-indol-2-yl)-1-methylpyridin-2(1H)-one]
